Measured values from PubChem BioAssay (NCI).
“And” between values parts separate entries of the source, which are not always exact repeats. Equal values may be shown once.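 Results reflect a 48-hour exposure of cells in 96-well plates to compound at five concentrations. GI50 marks 50% less growth. TGI: concentration producing complete growth inhibition.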

Tests used:
Experiment in all cases: NCI-60 cell line screen, 48 h
HT29 colon = tested on: HT29 colon
HCT-15 colon = tested on: HCT-15 colon
786-0 renal = tested on: 786-0 renal
IGROV1 ovarian = tested on: IGROV1 ovarian
SK-MEL-2 melanoma = tested on: SK-MEL-2 melanoma
DU-145 prostate = tested on: DU-145 prostate
SK-MEL-28 melanoma = tested on: SK-MEL-28 melanoma
NCI-H226 lung = tested on: NCI-H226 lung
NCI-H460 lung = tested on: NCI-H460 lung
MDA-MB-435 = tested on: MDA-MB-435

SMILES	GI50 (HT29 colon)	TGI (HT29 colon)	GI50 (HCT-15 colon)	TGI (HCT-15 colon)	GI50 (786-0 renal)	TGI (786-0 renal)	GI50 (IGROV1 ovarian)	TGI (IGROV1 ovarian)	GI50 (SK-MEL-2 melanoma)	TGI (SK-MEL-2 melanoma)	GI50 (DU-145 prostate)	TGI (DU-145 prostate)	GI50 (SK-MEL-28 melanoma)	TGI (SK-MEL-28 melanoma)	GI50 (NCI-H226 lung)	TGI (NCI-H226 lung)	GI50 (NCI-H460 lung)	TGI (NCI-H460 lung)	GI50 (MDA-MB-435)	TGI (MDA-MB-435)
Cc1nn(-c2ccccc2)c2c1C1C(=C(c3ccc(Cl)cc3)N2)C(=O)Nc2ccccc21 (stereo unspecified)	2.89 µM	8.61 µM	3 µM	18.6 µM	3.97 µM	31 µM	3.82 µM	60.2 µM	1.87 µM	4.29 µM	7.01 µM	> 100 µM	4.65 µM	62.1 µM	7.34 µM	36 µM	3.17 µM	10.2 µM	3.26 µM	17.2 µM
C[C@@H](NC(=O)Cc1cc(F)cc(F)c1)C(=O)N[C@@]1(C)N=C(c2ccccc2)c2ccccc2N(C)C1=O	49.4 µM	> 100 µM	> 78.1 µM	> 100 µM	> 100 µM	> 100 µM	> 65.6 µM	> 100 µM	> 100 µM	> 100 µM	30.2 µM	> 100 µM	> 100 µM	> 100 µM	24 µM	71.9 µM	40.4 µM	> 100 µM	38.9 µM	> 100 µM
N#CC1c2ccccc2-c2ccccc2N1C(=O)c1ccccc1 (stereo unspecified)	1.1 µM	> 25.3 µM	1.38 µM	> 100 µM	3.53 µM	> 88.1 µM	2.66 µM	7.01 µM	2.78 µM	> 29.6 µM	1.72 µM	4.21 µM	1.75 µM	> 100 µM	3.11 µM	> 100 µM	3.06 µM	10.9 µM	0.255 µM	0.761 µM
Cn1c(=O)n(-c2ccc(C(C)(C)C#N)cc2)c2c3cc(-c4cnc5ccccc5c4)ccc3ncc21	0.0101 µM and 0.00603 µM and < 0.01 µM	–	< 0.01 µM and 0.00522 µM	> 100 µM	< 0.0118 µM and 0.00542 µM and < 0.01 µM	–	< 0.01 µM and 0.00363 µM	0.0258 µM and 0.0381 µM	0.012 µM and 0.00598 µM and 0.0137 µM	0.0505 µM and 0.292 µM and 0.0744 µM	< 0.01 µM and 0.00575 µM	33.8 µM and > 10 µM and > 100 µM	0.016 µM and 0.0328 µM and < 0.0123 µM	–	< 0.001 µM	–	< 0.01 µM and 0.00581 µM	> 100 µM	< 0.01 µM and 0.00572 µM	0.0687 µM
CC[C@@]1(OC(=O)CN)C(=O)OCc2c1cc1n(c2=O)Cc2cc3cc(N)ccc3nc2-1	0.127 µM	> 100 µM	0.153 µM	> 20.3 µM	< 0.01 µM	0.0409 µM	0.0974 µM	1.39 µM	< 0.0441 µM	0.421 µM	< 0.01 µM	> 76.5 µM	0.753 µM	> 100 µM	< 0.0152 µM	0.388 µM	< 0.01 µM	–	0.0802 µM	0.381 µM
CCOC(=O)c1[nH]c2c(c1C)-c1[nH]c(=O)c(S(=O)(=O)c3ccccc3)cc1SC2	40.7 µM	> 100 µM	> 100 µM	> 100 µM	46.3 µM	> 100 µM	21.3 µM	> 100 µM	92.3 µM	> 100 µM	30.6 µM	> 100 µM	70 µM	> 100 µM	64.4 µM	> 100 µM	34.6 µM	> 100 µM	42.8 µM	> 100 µM
CCN(CC)CCC(=O)Nc1ccc(Cn2nnc3c2C(=O)c2nnn(Cc4ccc(NC(=O)CCN(CC)CC)cc4)c2C3=O)cc1	0.304 µM	0.787 µM	26.7 µM	> 100 µM	8.97 µM	> 72.3 µM	0.411 µM	1.37 µM	0.22 µM	0.571 µM	1.05 µM	2.25 µM	1.09 µM	2.82 µM	1.51 µM	3.46 µM	0.356 µM	1.46 µM	0.173 µM	0.324 µM
COc1ccc2c(c1O)[C@@]13C=C(O)C(=O)C=C1[C@@H](C2)N(C)CC3	–	> 100 µM	–	> 100 µM	–	> 100 µM	–	> 100 µM	–	> 100 µM	–	> 100 µM	–	> 100 µM	–	> 100 µM	–	> 100 µM	–	> 100 µM
c1ccc2c(c1)nc(NCCN1CCNCC1)c1c3ccccc3[nH]c21	0.167 µM	1.53 µM	0.176 µM	0.7 µM	0.342 µM	1.6 µM	0.84 µM	8.18 µM	1.41 µM	2.89 µM	0.227 µM	1.4 µM	1.37 µM	2.8 µM	1.2 µM	3.91 µM	0.221 µM	1.14 µM	0.798 µM	2.24 µM
CC1Cc2c(N(C)C)ncnc2N(C)c2ccc(Cl)cc21 (stereo unspecified)	3.22 µM	37 µM	2.83 µM	85.9 µM	8.26 µM	29.3 µM	8.48 µM	> 100 µM	5.88 µM	57.3 µM	5.49 µM	> 100 µM	10.8 µM	> 100 µM	11 µM	57.8 µM	3.86 µM	46.6 µM	0.397 µM	> 100 µM
Nc1ncnc2occ(-c3ccc(NC(=O)Nc4cc(C(F)(F)F)cc(C(F)(F)F)c4)cc3)c12	1.83 µM	5.29 µM	2.98 µM	7.83 µM	3.54 µM	7.07 µM	3.05 µM	9.94 µM	3.72 µM	7.47 µM	3.59 µM	7.34 µM	4.24 µM	7.77 µM	0.584 µM	4.53 µM	3.1 µM	6.7 µM	3.45 µM	7.15 µM
CN1C(=O)c2cc(Cl)nc3c(NC(=O)c4cccc(Cl)c4)c(Cl)c(NC(=O)c4cccc(Cl)c4)c1c23	1.97 µM	4.05 µM	0.581 µM	1.94 µM	2.69 µM	7.96 µM	1.42 µM	3.15 µM	2.19 µM	4.35 µM	2.28 µM	5.19 µM	1.78 µM	3.45 µM	2.02 µM	4.05 µM	2.34 µM	5.17 µM	1.7 µM	3.2 µM
CC1(C)N=C(N)N=C(N)N1c1ccc(OCC(=O)Nc2cccc(S(=O)(=O)F)c2)c(Cl)c1	–	> 100 µM	–	> 100 µM	–	> 42.5 µM	–	> 100 µM	–	> 100 µM	–	> 100 µM	–	> 100 µM	–	77.2 µM	–	> 100 µM	–	> 100 µM
CCCC/C(=N\N=C(N)N)c1ccc(F)cc1	2.23 µM	–	2.49 µM	14.2 µM	3.93 µM	16.2 µM	5.06 µM	20.9 µM	3.09 µM	9.4 µM	3.89 µM	14.7 µM	4.21 µM	17.6 µM	2.78 µM	13.3 µM	3.9 µM	14.7 µM	0.381 µM	2.22 µM
Cc1ccc(C2=Nc3c(N)ncnc3NC(c3cccc(Nc4ccnc5cc(C(F)(F)F)ccc45)c3)C2)cc1 (stereo unspecified)	2.45 µM	7.29 µM	2.82 µM	16.5 µM	3.03 µM	11.2 µM	4.93 µM	90.9 µM	2.15 µM	5.15 µM	6.83 µM	> 100 µM	3.81 µM	31.4 µM	15.2 µM	> 100 µM	3.07 µM	10.5 µM	1.94 µM	4.84 µM
CCN(CC)CCOc1ccc(/C=C2\C[C@H]3[C@@H]4CC=C5C[C@@H](OC(C)=O)CC[C@]5(C)[C@H]4CC[C@]3(C)[C@H]2OC(C)=O)cc1OC	14.8 µM	> 50 µM	7.38 µM	> 50 µM	9.66 µM	18.7 µM	14.9 µM	> 50 µM	19.2 µM	> 50 µM	5.84 µM	12.2 µM	12.4 µM	> 50 µM	11.3 µM	31.7 µM	7.6 µM	34.6 µM	11 µM	21.7 µM
C/C(=C(/c1ccc(O)cc1)c1ccc(OCCN2CCCC2)cc1)c1ccccc1	1.35 µM	3.2 µM	1.81 µM	4.64 µM	1.86 µM	4.09 µM	6.8 µM	27 µM	1.97 µM	3.95 µM	9.72 µM	21.4 µM	1.65 µM	3.41 µM	11.3 µM	29.8 µM	2.36 µM	5.38 µM	1.88 µM	4.4 µM
O=C(N[C@@H]1CCCc2ccccc21)[C@H](CCC(=O)N1CCN(C2CCCCC2)CC1)N1C(=O)[C@@H](N2C(=O)OC[C@@H]2c2ccccc2)[C@H]1/C=C/c1ccccc1	1.99 µM	5.21 µM	2.97 µM	12.3 µM	1.86 µM	4.07 µM	2.44 µM	41.3 µM	1.92 µM	4.29 µM	2.9 µM	19.3 µM	1.77 µM	3.67 µM	4.29 µM	18.4 µM	2.65 µM	7.23 µM	1.35 µM	2.72 µM
CCOP(=O)(OCC)/C(C#N)=C\c1cccc2ccccc12	–	> 100 µM	–	> 100 µM	–	> 100 µM	–	> 100 µM	–	> 100 µM	–	> 100 µM	–	> 100 µM	–	> 73.8 µM	–	> 100 µM	–	> 100 µM
CC(C)(C)n1cc(-c2ccnc(NCCNS(=O)(=O)c3ccc(Br)cc3)c2)c(-c2cccc(O)c2)n1	1.52 µM	3.75 µM	1.35 µM	2.93 µM	1.72 µM	3.82 µM	1.95 µM	4.39 µM	1.93 µM	3.99 µM	2.14 µM	4.86 µM	1.75 µM	3.26 µM	2.07 µM	5.32 µM	1.93 µM	3.71 µM	1.78 µM	3.35 µM
COc1ccc2nc3ccc(OC)cc3c(SCCCN)c2c1	1.91 µM	4.07 µM	3.17 µM	20.2 µM	6.85 µM	15.2 µM	8.46 µM	27.2 µM	6.05 µM	11.7 µM	1.81 µM	3.26 µM	1.99 µM	3.86 µM	19.2 µM	65.7 µM	8.66 µM	31.6 µM	6.83 µM	27.6 µM
Cc1c(C(C)C)cc(OCCO)cc1C(C)C	–	81.1 µM	–	> 100 µM	–	63 µM	–	> 100 µM	–	57.3 µM	–	> 100 µM	–	> 100 µM	–	> 100 µM	–	> 100 µM	–	> 100 µM
O=C1C=C(Nc2cccc(Br)c2)c2ccccc2C1=O	69.1 µM	> 100 µM	1.33 µM	> 100 µM	7.25 µM	28.2 µM	10.5 µM	37.5 µM	0.785 µM	22 µM	0.569 µM	14 µM	8.76 µM	61.4 µM	21.7 µM	99.4 µM	0.402 µM	25.7 µM	0.19 µM	0.484 µM
COc1cc(C2C3=C(COC3=O)N(CCO)c3cc4c(cc32)CCC4)cc(OC)c1O (stereo unspecified)	0.156 µM	–	1.09 µM	> 32.5 µM	0.77 µM	32 µM	0.159 µM	11.4 µM	0.0795 µM	0.262 µM	0.136 µM	2.31 µM	0.213 µM	> 32.5 µM	3.75 µM	> 32.5 µM	0.114 µM	6.65 µM	0.0646 µM	0.191 µM
CN1CCCC1c1cccnc1.O=C(O)c1ccccc1O.O=C([O-])c1ccccc1[OH2+].O=C([O-])c1ccccc1[OH2+].O=C([O-])c1ccccc1[OH2+].[Mn+2] (stereo unspecified)	> 100 µM	> 100 µM	> 100 µM	> 100 µM	> 100 µM	> 100 µM	97.7 µM	> 100 µM	> 100 µM	> 100 µM	> 100 µM	> 100 µM	> 100 µM	> 100 µM	> 100 µM	> 100 µM	–	–	> 100 µM	> 100 µM
